Experimental data as given in patent US12319708B2, “Agonists of peroxisome proliferator-activated receptor alpha (PPARα) and methods of use” (The Board of Regents of the University of Oklahoma, priority 2018, dated 2025).
pEC50: −log10 of the molar value. In brackets after ≈: the same amount, converted by molar mass. Like-named read-outs stand apart in the source and are kept apart here. Each block holds one compound with its values, some of them ahead of it.

What was measured:
[1] = test system: PPARα target genes (Acadm, Cpt1a, Fabp3, Slc25a20) in 661W cells; assay: RT-PCR of PPARα target genes in 661W cells; assay type: cell-based, mouse; details: 24 h
Experimental: (§1) To further confirm that this 4-benzyloxy-benzylamino chemotype acts as a PPARα agonist, we evaluated compound 10 in various biochemical assays. […] Compound 10 was also evaluated in an in vitro wound healing assay utilizing human retinal capillary endothelial cells (HRCEC).

[2] = molecular target: T1, hPPARδ (Homo sapiens, UniProt Q03181); assay: PPARδ luciferase reporter cell-line assay (Indigo Biosciences); assay type: cell-based
T1 construct: expressed in transfected cells
T1 sequence (Q03181 1-441): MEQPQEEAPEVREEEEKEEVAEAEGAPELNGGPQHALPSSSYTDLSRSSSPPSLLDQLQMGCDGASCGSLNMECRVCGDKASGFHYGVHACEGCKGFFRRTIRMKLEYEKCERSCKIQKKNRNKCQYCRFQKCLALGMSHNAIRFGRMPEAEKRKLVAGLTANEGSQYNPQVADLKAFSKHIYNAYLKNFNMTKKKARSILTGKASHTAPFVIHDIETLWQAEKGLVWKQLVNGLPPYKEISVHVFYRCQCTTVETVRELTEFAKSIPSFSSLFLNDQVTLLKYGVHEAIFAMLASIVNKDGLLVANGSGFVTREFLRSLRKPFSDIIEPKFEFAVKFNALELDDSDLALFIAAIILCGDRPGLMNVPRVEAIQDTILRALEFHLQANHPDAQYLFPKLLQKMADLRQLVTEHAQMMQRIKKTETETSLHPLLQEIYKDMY
Experimental: (§2) Luciferase assays were conducted on isogenic cell-lines engineered to overexpress either PPARδ or PPARγ with expression of the requisite luciferase reporter gene dependent upon exogenous activation of each isoform.

[3] = test system: retinal vascular leakage in diabetic rats; assay: STZ-rat model of diabetic retinopathy, retinal permeability; assay type: in vivo
Experimental: 7-8 week-old male Brown Norway rats were injected with streptozotocin (STZ, 55 mg/kg).

[4] = molecular target: T2, hPPARγ (Homo sapiens, UniProt P37231); assay: PPARγ luciferase reporter cell-line assay (Indigo Biosciences); assay type: cell-based
T2 construct: expressed in transfected cells
T2 sequence (P37231 1-505): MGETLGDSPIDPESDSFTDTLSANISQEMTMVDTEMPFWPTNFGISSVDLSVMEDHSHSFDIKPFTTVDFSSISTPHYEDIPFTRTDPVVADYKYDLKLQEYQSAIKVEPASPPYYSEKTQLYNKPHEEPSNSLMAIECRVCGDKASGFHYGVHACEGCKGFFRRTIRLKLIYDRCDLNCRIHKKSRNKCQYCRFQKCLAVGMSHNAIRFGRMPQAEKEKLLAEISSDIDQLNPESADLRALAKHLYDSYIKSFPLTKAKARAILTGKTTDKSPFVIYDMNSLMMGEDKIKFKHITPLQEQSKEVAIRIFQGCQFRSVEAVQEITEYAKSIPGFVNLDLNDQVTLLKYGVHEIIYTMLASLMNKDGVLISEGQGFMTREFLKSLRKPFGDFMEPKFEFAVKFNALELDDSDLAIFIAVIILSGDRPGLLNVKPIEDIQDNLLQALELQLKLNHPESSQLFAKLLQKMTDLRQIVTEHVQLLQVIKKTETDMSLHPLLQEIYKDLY
Experimental: as §2

[5] = test system: liver phenotype of STZ diabetic rats; assay: STZ-rat model, liver phenotype and toxicity; assay type: in vivo
Experimental: 7-8 week-old male Brown Norway rats were injected with streptozotocin (STZ, 55 mg/kg). Two weeks after STZ injections, daily treatment (i.p. injection) with ASD091 or FenoFA commenced and lasted for 26-28 days. ≠P<0.05 (vs. FenoFA), *P<0.05 (vs. STZ-DMSO).

[6] = test system: PPARα expression in 661W cells; assay: Western blot analysis of PPARα expression in 661W cells; assay type: cell-based, mouse; details: 24 h, 10, 50 and 100 μM
Experimental: as §1

[7] = molecular target: T3, hPPARα (Homo sapiens, UniProt Q07869); assay: PPARα luciferase cell reporter assay (Indigo Biosciences); assay type: cell-based; details: for Fold (5 μM): fold increase in luciferase compared to DMSO negative control / Fold (50 μM): fold increase in luciferase compared to DMSO negative control: structure IIa compounds (Table 6); for ratio of agonism compared to GW590735 (value in parentheses): hPPARα luciferase reporter cell-line; for PPAR isoform selectivity profile: hPPARα vs hPPARδ and hPPARγ luciferase cell-lines; for dose-dependent PPARα agonism in cell-based luciferase reporter assay: FIGS. 4 and 7
T3 sequence (Q07869 1-468): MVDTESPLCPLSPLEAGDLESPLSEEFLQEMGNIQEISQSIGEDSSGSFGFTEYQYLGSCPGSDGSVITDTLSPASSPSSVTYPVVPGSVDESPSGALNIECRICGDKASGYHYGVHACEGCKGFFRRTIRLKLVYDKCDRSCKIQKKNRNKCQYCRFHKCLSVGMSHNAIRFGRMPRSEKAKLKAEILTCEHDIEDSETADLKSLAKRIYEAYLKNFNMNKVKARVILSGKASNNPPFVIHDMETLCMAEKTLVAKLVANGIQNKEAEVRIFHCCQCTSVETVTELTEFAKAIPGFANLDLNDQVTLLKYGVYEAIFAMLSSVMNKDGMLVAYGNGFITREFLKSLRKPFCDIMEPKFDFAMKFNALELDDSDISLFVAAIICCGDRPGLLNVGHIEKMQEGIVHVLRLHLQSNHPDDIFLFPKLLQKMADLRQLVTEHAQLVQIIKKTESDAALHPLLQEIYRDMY
From the text: With the focused subset of analogs in-hand, our efforts shifted to the evaluation of these derivatives for PPARα agonism. Preliminary evaluation utilized a commercially available PPARα luciferase cell reporter assay (Indigo Biosciences). The cell-line employed is engineered to constitutively express high-levels of hPPARα. Upon interaction with an agonist, hPPARα translocates to the nucleus, binds to the PPRE, and upregulates gene transcription, including the inserted luciferase gene. Luciferase activity is detected indirectly through quantification of oxyluciferin production.

[8] = Solubilities of various compounds; assay type: physicochemical
[9] = Table 6, cellular luciferase activity, read-out: δ EC50
[10] = luciferase reporter cell-line, triplicate, single experiment, read-out: hPPARδ EC50
[11] = STZ diabetic Brown Norway rats, daily i.p. injection 26-28 days
[12] = inferred from efficacy after systemic administration
[13] = Table 6, cellular luciferase activity, read-out: γ EC50
[14] = luciferase reporter cell-line, triplicate, single experiment, read-out: hPPARγ EC50
[15] = Table 6, cellular luciferase activity, read-out: α EC50
[16] = luciferase reporter cell-line, triplicate, single experiment, read-out: hPPARα EC50
[17] = PBS, pH 7.4, aqueous buffer, read-out: PBS Solubility pH 7.4
[18] = water, H2O, read-out: H2O Solubility

SMILES: COc1ccc(COc2ccc(CNc3cccc(C(=O)O)c3)cc2)cc1 [Compound 91]
expression of PPARα target genes (Acadm, Cpt1a, Fabp3, Slc25a20) [1]: induces the expression of various PPARα target genes
pEC50 [2, 9]: < 4.00
pEC50 [2, 10]: < 4.00
retinal vascular leakage [3, 11]: reduces retinal vascular leakage in diabetic rats
bioavailability [3, 12]: is bioavailable
blood-ocular barrier crossing [3, 12]: crosses blood-ocular barrier and reaches the retina
pEC50 [4, 13]: < 4.00
pEC50 [4, 14]: < 4.00
signs of hepatomegaly [5, 11]: seems to lack signs of hepatomegaly
observable toxicity ([5]; daily injection for one-month): no observable toxicity
expression of PPARα (Western blot, densitometry) [6]: induced the expression of PPARα in a dose-dependent manner

pEC50 [2, 9]: < 4.00
pEC50 [2, 10]: < 4.00
pEC50 [4, 13]: < 4.00
pEC50 [4, 14]: < 4.00
Fold (5 μM): fold increase in luciferase compared to DMSO negative control [7]: 8 fold
Fold (50 μM): fold increase in luciferase compared to DMSO negative control [7]: 21 fold
pEC50 [7, 15]: 5.29
ratio of agonism compared to GW590735 (value in parentheses) [7]: 1.1
PPAR isoform selectivity profile [7]: maintains the selectivity
pEC50 [7, 16]: 5.29
SMILES: COc1ccc(COc2ccc(CNc3cccc(C(=O)O)c3)c(OCc3ccc(OC)cc3)c2)cc1 [Compound 92]

pEC50 [2, 9]: 4.74
pEC50 [2, 10]: 4.41
pEC50 [4, 13]: 4.41
pEC50 [4, 14]: 4.74
SMILES: COc1ccc(COc2ccc(CNc3cccc(OC(C)(C)C(=O)O)c3)cc2)cc1 [Compound 114]

pEC50 [2, 9]: 5.25
pEC50 [2, 10]: 5.05
pEC50 [4, 13]: 5.05
pEC50 [4, 14]: 5.25
Fold (5 μM): fold increase in luciferase compared to DMSO negative control [7]: 1 fold
Fold (50 μM): fold increase in luciferase compared to DMSO negative control [7]: 41 fold
improvement in potency on adding third B-ring substituent ([7]; 28 compared with 22): 10 fold
pEC50 [7, 15]: 5.68
ratio of agonism compared to GW590735 (value in parentheses) [7]: 1.4
PPAR isoform selectivity profile [7]: pan-agonist profile was maintained
pEC50 [7, 16]: 5.68
SMILES: COc1ccc(COc2ccc(CNc3cccc(OC(C)(C)C(=O)O)c3)c(OCc3ccc(OC)cc3)c2)cc1 [Compound 115]

Fold (5 μM): fold increase in luciferase compared to DMSO negative control [7]: 61 fold
Fold (50 μM): fold increase in luciferase compared to DMSO negative control [7]: 66 fold
pEC50 [7, 15]: 6.15
SMILES: O=C(O)c1cc(F)cc(NCc2ccc(OCc3ccc(F)cc3)cc2)c1 [Compound 185]

Fold (5 μM): fold increase in luciferase compared to DMSO negative control [7]: 1 fold
Fold (50 μM): fold increase in luciferase compared to DMSO negative control [7]: 0 fold
SMILES: COc1ccc(CCOc2ccc(CCNc3cccc(C(=O)O)c3)cc2)cc1 [Compound 187]

Fold (5 μM): fold increase in luciferase compared to DMSO negative control [7]: 10 fold
Fold (50 μM): fold increase in luciferase compared to DMSO negative control [7]: 45 fold
SMILES: CC(C)(Sc1cccc(NCc2ccc(OCc3ccc(F)cc3)cc2)c1)C(=O)O [Compound 188]

Fold (5 μM): fold increase in luciferase compared to DMSO negative control [7]: 39 fold
Fold (50 μM): fold increase in luciferase compared to DMSO negative control [7]: 37 fold
pEC50 [7, 15]: 5.92
SMILES: O=C(O)c1cccc(NCc2ccc(OCc3ccc(I)cc3)cc2)c1 [Compound 189]

pEC50 [2, 9]: < 4.00
pEC50 [4, 13]: < 4.00
dose-dependent PPARα agonism in cell-based luciferase reporter assay [7]: exhibits dose-dependent activity
dose-dependent PPARα agonism in cell-based luciferase reporter assay ([7]; listed as A190): dose-dependent agonism of PPARα
pEC50 [7, 15]: 7.52
pEC50 ([7]; text b235, read-out: EC50 (PPARα)): 7.43
SMILES: Cc1cc(CNc2cccc(C(=O)O)c2)ccc1OCc1ccc(F)cc1 [Compound 190]

Fold (5 μM): fold increase in luciferase compared to DMSO negative control [7]: 42 fold
Fold (50 μM): fold increase in luciferase compared to DMSO negative control [7]: 61 fold
SMILES: N#Cc1ccc(COc2ccc(CNc3cccc(C(=O)O)c3)cc2)cc1 [Compound 191]

Fold (5 μM): fold increase in luciferase compared to DMSO negative control [7]: 53 fold
Fold (50 μM): fold increase in luciferase compared to DMSO negative control [7]: 58 fold
pEC50 [7, 15]: 6.10
SMILES: O=C(O)c1cccc(NCc2ccc(OCc3ccc(Br)cc3)cc2)c1 [Compound 192]

Fold (5 μM): fold increase in luciferase compared to DMSO negative control [7]: 73 fold
Fold (50 μM): fold increase in luciferase compared to DMSO negative control [7]: 56 fold
pEC50 [7, 15]: 5.96
SMILES: O=C(O)c1cccc(NCc2ccc(OCc3cccc(F)c3)cc2)c1 [Compound 193]

SMILES: O=C(O)c1cccc(NCc2ccc(OCc3ccc(F)cc3F)cc2)c1 [Compound 194]
pEC50 [7]: 6.40
Fold (5 μM): fold increase in luciferase compared to DMSO negative control [7]: 51 fold
Fold (50 μM): fold increase in luciferase compared to DMSO negative control [7]: 49 fold

Fold (5 μM): fold increase in luciferase compared to DMSO negative control [7]: 34 fold
Fold (50 μM): fold increase in luciferase compared to DMSO negative control [7]: 45 fold
SMILES: O=C(O)c1cccc(NCc2ccc(OCc3ccccc3F)cc2)c1 [Compound 195]

Fold (5 μM): fold increase in luciferase compared to DMSO negative control [7]: 88 fold
Fold (50 μM): fold increase in luciferase compared to DMSO negative control [7]: 84 fold
SMILES: Cc1cc(CNc2cccc(C(=O)O)c2)ccc1OCc1cc(F)cc(F)c1 [Compound 198]

Fold (5 μM): fold increase in luciferase compared to DMSO negative control [7]: 102 fold
Fold (50 μM): fold increase in luciferase compared to DMSO negative control [7]: 131 fold
SMILES: Cc1cc(CN(C)c2cccc(C(=O)O)c2)ccc1OCc1ccc(F)cc1 [Compound 199]

solubility [8, 17]: 278 µM (≈ 88.6 µg/mL)
solubility [8, 18]: 93 µM (≈ 29.6 µg/mL)
SMILES: CC(C)(Oc1ccc(C(=O)c2ccc(Cl)cc2)cc1)C(=O)O [Fenofibric acid, fenofibric acid, reference compound]

solubility [8, 17]: 292 µM
solubility [8, 18]: 318 µM
SMILES: Cc1cc(CNc2cccc(C(=O)OCOP(=O)([O-])O)c2)ccc1OCc1ccc(F)cc1.[Na+] [ZH-2021-162]

solubility [8, 17]: 316 µM (≈ 150 µg/mL)
solubility [8, 18]: 284 µM (≈ 135 µg/mL)
SMILES: Cc1cc(CNc2cccc(C(=O)OCOP(=O)(O)O)c2)ccc1OCc1ccc(F)cc1 [ZH-2021-164]
